Test results from patent US10799552B2, “Methods for treating diabetic neurotherapy” (Massachusetts Eye and Ear Infirmary, priority 2011, dated 2020).
Peptide text beside a SMILES is read from it. * marks the point of attachment. Cbz = O=C(OCc1ccccc1)*; CH2F = FC*

Test system: optic nerve axons of retinal ganglion cells
Experiment: Axon regeneration after optic nerve crush injury (βIII-tubulin staining of optic nerve sections)
Type: in vivo, mouse
Details: intravitreal, ZVAD 300 μM and/or Nec-1 4 mM; 14 days after optic nerve injury; FIGS. 3B-3E
Protocol: Intravitreal injections were performed as follows. Briefly, the tip of a 33 gauge needle (Hamilton, Reno, Nev.) was carefully inserted through the sclera into the intravitreal space to reduce intraocular pressure. Then, the needle was extracted, loaded with compounds and tangentially reinserted through the sclera into the intravitreal space, inducing a self-sealing wound tunnel. After injection, the absence of choroidal bleeding was confirmed. At specified times after injury, mice were sacrificed with an overdose of sodium pentobarbital, and eyes were enucleated.
To investigate the efficacy of necrosis inhibitor and pan-caspase inhibitor in promoting axon regeneration, eight-weeks-old mice were subjected to optic nerve crush surgery as previously described. […]
Axon regeneration was assessed by obtaining longitudinal sections of the optic nerve and counting the number of axons at pre-specified distances from the injury site. […] Axons were counted manually in at least eight longitudinal sections per case at pre-specified distances from the injury site. The number of regenerating axons at various di stances are determined as described previously (Leon et al., (2000) J NEUROSCI 20: 4615-4626). […]

In the case of `CN1C(=O)NC(Cc2c[nH]c3c(Cl)cccc23)C1=O` (centres unmarked) [Nec-1], the “axon regeneration (axon staining beyond injury site)” value was “minimal effects on axon regeneration”.
`COC(=O)CC(NC(=O)C(C)NC(=O)C(NC(=O)OCc1ccccc1)C(C)C)C(=O)CF` (stereo not drawn) [ZVAD, Benzyloxycarbonyl-Val-Ala-Asp(OMe)-fluoromethylketone] (Cbz-Val-Ala-Asp(OMe)-CH2F; configuration not given here) was tested, and the “axon regeneration (axon staining beyond injury site)” value was “minimal effects on axon regeneration”.
